The values that follow come from a melting point compilation (Tetko et al.; mined from patent text by program, amines drawn as free bases though some values may be those of a salt).

`Cc1cnc(NC(=O)C(Cc2ccc(F)cc2)c2ccc(S(C)(=O)=O)cc2)cn1` (stereo not drawn) showed a melting point of 172 to 175 °C.

`CCOC(=O)c1nc2c(=O)[nH]c3cc(C(F)(F)F)ccc3n2c1CBr`: the melting point lay in the range of 247 to 248 °C. Compound `COc1ccc(-c2sc3cc(OC)ccc3c2C(=O)c2c(OC)cccc2OC)cc1` yielded a melting point of 146 to 152 °C. Turning to `CC(C)(C)NCC(O)COc1ccc(-c2nc(-c3ccccc3)c[nH]2)cc1` (stereo not drawn), the melting point fell in the range of 176 to 178 °C. Consider `O=c1oc(-c2ccccc2)cc(O)c1C(CCCSc1ccccc1)Sc1ccccc1` (stereo not drawn), for which the melting point was 75 to 77 °C.

Regarding `CC(C)[C@H](NC(=O)N(C)Cc1cscn1)C(=O)N[C@@H](Cc1ccccc1)C[C@H](O)[C@H](Cc1ccccc1)NC(=O)OCc1cccnc1`, the melting point lay within 69 to 73 °C.

In turn, `CCC(C)COC(=O)C1(OC(=O)c2ccc(O)cc2)C=CC=CC1` (stereo not drawn) displayed a melting point of 90.8 to 92.6 °C. `Cn1cc(S(C)=O)c(=O)c2sc(-c3ccccc3)cc21` (stereo not drawn) yielded a melting point of 252 to 255 °C.

Turning to `CCOc1c(C=NOCc2ccccc2)c(=O)n(C)c(=O)n1C`, the melting point was 93 to 94 °C. The value for `FC(F)(F)C(c1ccc(Cl)cc1)C(Br)c1ccccc1` (stereo not drawn) was 143 to 146 °C. `COc1c(Cl)cc(N2C(=O)N3CCCC3(Cc3ccc(C#N)cc3)C2=O)cc1Cl` (stereo not drawn) had a melting point of 95.1 °C. `C[C@H](NC(C#N)CCc1ccccc1)C(=O)O` (stereo partly drawn) displayed a melting point of 115 °C. As for `O=C1NC(=S)NC(=O)C1=Cc1cccc2ccccc12`, the melting point came to 280 °C. `CC(=O)OC1CSC(Oc2cc(C)c(-c3cccnc3)c(C)c2)C(OC(C)=O)C1OC(C)=O` (stereo not drawn): the melting point is 75 to 80 °C. In turn, `CCOC(=O)Cc1cc2cc(Br)ccc2s1` showed a melting point of 56 to 57 °C. In turn, `CN1CCC(N2C(=O)c3cc(Cl)ccc3Sc3ccccc32)CC1` displayed a melting point of 164 to 165 °C. With `C=CCN(CCC12CC3CC(CC(C3)C1)C2)C(=O)NCCCc1ccncc1`, the melting point is 99 to 102 °C. `CCCCNS(=O)(=O)c1cc(C(=O)O)cc(N)c1Sc1ccc(NC(C)=O)cc1` showed a melting point of 228 to 229 °C. `O=C(O)c1ccc(C(=O)OC(c2ccc3c(c2)OCO3)c2ccc3c(c2)OCO3)s1` returned a melting point of 141 to 148 °C. As to `O=C(c1ccc(F)cc1)C1CCN(CCCn2c(=O)[nH]c(=O)c3ccccc32)CC1`, the melting point came to 193 °C. The value for `CON(C)C(=O)c1ccc(-n2ccnc2)nc1` was 69 to 70 °C; that for `CCOC(=O)COc1cc2onc(-c3ccccc3F)c2cc1Br` was 130 to 132 °C; that for `O=Cc1ccc(N2CCC(O)CC2)cc1` was 115 to 118 °C. The value for `CN1C(=O)C(C(=O)Nc2ccccn2)Sc2ccccc21` (stereo not drawn) was 141 to 143 °C; that for `CCCCc1ccc2nc(C(=O)OCC)cc(Cl)c2c1` was 54.5 to 56 °C; that for `Cn1cc(C(=O)NC2CCCNC(=O)C2)nn1` (stereo not drawn) was 259 to 260 °C. The compound `CCOP(=O)(OCC)OC(=Cc1nccn1C)C(F)(F)F` displayed a melting point of 54 to 64 °C. The compound `N#Cc1ccc(N2C(=O)NC(=Cc3ccccc3O)C2=O)c2ccccc12` showed a melting point of 146 to 149 °C. The compound `OC1CCc2cnc3c(c21)CCO3` (stereo not drawn) showed a melting point of 130 to 131 °C. The result for `CC(C)c1ccc(N2CC(=O)N(c3cccc(C(=O)O)c3)C2=O)cc1` reads 224 to 226 °C; that for `O=C1c2ccccc2S(=O)(=O)N1CF`, 96 to 98 °C; that for `CC(C(=O)O)c1ccc(Sc2nccs2)cc1` (stereo not drawn), 85 to 87 °C. The value for `CC(N)c1ccccc1O` (single isomer, unassigned; (+)) was 83 to 83.5 °C; that for `CCN1c2ncc(CCc3ccncc3)cc2C(=O)Nc2c(C)ccnc21` was 176 to 178 °C. For `COC1(c2cc(F)cc(S(=O)(=O)c3ccc4c(ccc(=O)n4C)c3)c2)CCOC(C)C1` (stereo not drawn), the melting point lay in the range of 85 to 88 °C. Compound `COc1cc2c(cc1OC)C1N=Cc3cc4c(cc3C1CC2)OCO4` (stereo not drawn) returned a melting point of 208 to 210 °C. The value for `CC(=O)N1N=C(c2ccncc2)OC1c1ccc(Cl)c([N+](=O)[O-])c1` (stereo not drawn) was 122 °C; that for `Oc1cc2c3ccc(O)c(O)c3n(CCCc3ccccc3)c2cc1O` was 246 to 252 °C; that for `CCS(=O)(=O)c1cc(C(=O)NCC2CCCN2CC2=CCCC2)c(OC)cc1N` (stereo not drawn) was 125 to 126 °C.

On to `N#Cc1cnc2c(sc3ccc([N+](=O)[O-])cc32)c1Nc1ccc(Cl)cc1Cl`, for which the melting point was 210 to 213 °C.

In turn, `ClCc1nc(-c2ccccc2)c(-c2ccccc2)o1` yielded a melting point of 43 to 45 °C.

Turning to `Cc1oc(-c2ccccc2)nc1COc1ccc(CCl)cc1`, the melting point fell in the range of 108 to 109 °C. As to `CC(C)(CO)NS(=O)(=O)c1cccc(NC(=O)c2cnn3c(C(F)F)cc(-c4ccc(C(F)(F)F)cc4)nc23)c1`, the melting point turned out to be 232 °C.

`Cc1cc2c(=O)n3cc(C(=O)O)ccc3nc2s1`: the melting point fell in the range of 312 to 315 °C. The result for `Cc1ccc(C(=O)Nc2ccccc2N2CCN(Cc3ccc[nH]3)CC2)c(-c2ccc(C(F)(F)F)cc2)c1` reads 196 to 198 °C. Regarding `Cn1ncc(C(=O)N2CCCC2)c1C(=O)Nc1ccn2nc(N3CCOCC3)nc2c1`, the melting point fell in the range of 210 to 212 °C. Consider `Cc1c(C(=O)O)sc2ccc(CO)cc12`, for which the melting point is 260 to 262 °C. With `CCC1CC2C3CCC4=CC(=O)CCC4C3CCC2(C)C1OC(=O)COC(C)=O` (stereo not drawn), the melting point lay in the range of 98 to 100 °C.

As to `CCn1ncc(C(=S)c2ccc3c(c2C)/C(=N/OC)CCS3)c1O`, the melting point fell in the range of 92 to 97 °C. Consider `C=C(c1cn(-c2c(Cl)cc(C(F)(F)F)cc2Cl)nc1C#N)C(F)(F)C(F)(F)F`, for which the melting point is 107 to 108 °C. As to `CCOC(=O)C1=CC2(CCC1S(=O)(=O)Nc1ccc(F)cc1Cl)SCCS2` (stereo not drawn), the melting point lay within 160 to 161 °C.

Take `CC(C)CNC1=NS(=O)(=O)c2sc(Cl)cc2N1`: the melting point fell in the range of 262 to 264 °C. As for `CC1(C)CCC(C)(C)c2cc(-c3cc([N+](=O)[O-])ccc3-c3ccccc3)ccc21`, the melting point was 181 to 183 °C.

On to `Cc1onc(-c2ccccc2)c1-c1ccc(S(=O)(=O)NC(=O)CC(C)(C)SN=O)cc1`, for which the melting point lay within 138 to 140 °C.

As to `CC1=C(CCN(O)C(N)=O)/C(=C/c2ccc(S(C)(=O)=O)cc2)c2ccccc21`, the melting point was in the range of 140 to 142 °C. The compound `Cc1cc(-c2ccc(C(F)(F)F)cc2)cnc1N=CN(C)C` came in with a melting point of 74 °C. The value for `CN1CCC(c2ccc(F)cc2)(C(C)(C)O)CC1` was 165 to 166 °C; that for `c1ccc(CN[C@H]2CCCN[C@H]2c2ccc(-c3ccccc3)cc2)cc1` (relative stereo) was more than 268 °C. The result for `CC1(c2oncc2C(=O)c2ccc(S(C)(=O)=O)cc2C(F)(F)F)CC1` reads 141 to 142 °C; that for `COC(=O)c1ccc(N=Cc2ccccc2)cn1`, 84 to 89 °C; that for `N#CCCNC(=O)c1cccc(-c2ccc3c(n2)N(c2ccc(Cl)cc2Cl)CC3)c1`, 219 to 220 °C. `Cc1nc(-n2ccc(NC(=O)c3ccccc3)cc2=O)sc1C(=O)NCc1ccccc1` returned a melting point of 246 to 248 °C. Compound `CCCCOc1cc(CCC(=O)O)ccc1-c1cccc(N(C)C(=O)Nc2ccccc2)c1` gave a melting point of 134 to 136 °C. `CC(C)(C)OCc1cc(Oc2ccc(C(F)(F)F)cc2Cl)ccc1[N+](=O)[O-]` registered a melting point of 75 to 78 °C. Regarding `CCCCn1c(=O)c2c(NC)n[nH]c2n(CCOCc2ccccc2)c1=O`, the melting point fell in the range of 214 to 216 °C. `Nc1nc(NCCc2ccc(Cl)cc2)sc1C(=O)c1ccccc1[N+](=O)[O-]` gave a melting point of 117 to 120 °C. For the compound `Cc1ccc(S(=O)(=O)Nc2nc(-c3ccc(OCc4ccccc4)cc3)cs2)cc1`, the melting point lay in the range of 166 to 167 °C. Regarding `CSC(=C[N+](=O)[O-])NCCSCc1ccc(CN(C)C)o1`, the melting point is 71 °C. With `O=C1c2cc(Br)ccc2COc2ccc(Br)cc21`, the melting point was 193 to 194 °C. On to `CCCCc1oc2ccc([N+](=O)[O-])cc2c1C(=O)c1ccc(OCCCCCN(CCCC)CCCC)cc1`, for which the melting point turned out to be 107 °C.

Consider `CSc1cccc(Cc2sc(NC(C)=O)nc2CO)c1`, for which the melting point was in the range of 140 to 142 °C.

In turn, `COc1cccc(-c2cc(-c3ccoc3)on2)c1` showed a melting point of 36 to 37 °C.

`ClCOc1ccc2ccccc2c1` registered a melting point of 70 °C. `COc1ccc(-c2nc3cc(F)ccc3s2)cc1OC(=O)c1ccc([N+](=O)[O-])cc1` yielded a melting point of 198 °C. Consider `CCCc1cc(-c2ccc(Cl)cc2)nc2c(C(=O)Nc3cccc(S(=O)(=O)NC(C)(C)CO)c3)cnn12`, for which the melting point was in the range of 207 to 208 °C. `Cn1nnc(-c2ccc(C=O)cc2)n1` gave a melting point of 137 to 139 °C. Turning to `CCCCCCCCCCCCCCOc1ccc(COC(=O)Oc2ccccc2)cc1`, the melting point was 34 to 35 °C. The compound `O=c1cccnn1-c1ccc2nc([C@H]3C[C@H](N4CCCCC4)C3)sc2c1` registered a melting point of 127 to 128 °C. The value for `COC(=O)NN=Cc1ccnc2ccccc12` was 83.5 °C; that for `CC(C)(CCCCCNS(=O)(=O)c1ccc(Cl)cc1)C(=O)O` was 132 to 133 °C; that for `Cc1cc(C)c2ncc(C(=O)O)c(-c3ccccc3Cl)c2c1` was 234 to 235 °C. The value for `O=C(c1ccc(-c2cnc3c(c2)N(Cc2cc(F)ccc2F)CCN3)cn1)N1CCOCC1` was 111 to 113 °C. In the case of `Cn1c(CO)nc2cncnc21`, the melting point is 122 to 125 °C. The compound `Cc1ccccc1C(=O)NCN1CCN(c2cccc(C#N)c2)CC1` displayed a melting point of 156 to 159 °C. In turn, `CC1CCCN(c2nc(-n3cncn3)nc(Cl)c2-c2c(F)cc(F)cc2F)O1` (stereo not drawn) yielded a melting point of 141 to 143 °C. `N#Cc1c(N2CCN(C(=O)c3cccs3)CC2)c2cc(F)cnc2n(Cc2cccc(F)c2)c1=O` displayed a melting point of 137 °C.

Turning to `COc1ccc2c(c1)Oc1cscc1C(N1CCN(C)CC1)=N2`, the melting point was 188 to 189 °C. The result for `O=C(Nc1nnc(SCC(=O)C23CC4CC(CC(C4)C2)C3)s1)C1CC1` reads 218 to 219 °C.

Usually melting point stands for the temperature of the solid-liquid transition.
